Assay results from paper PMC4003287, “Fast and economic immobilization methods described for non-commercial Pseudomonas lipases” (BMC Biotechnology, 2014).

Columns and labels:
[1] = molecular target: T1, LipC (Pseudomonas sp. 42A2, UniProt B3GVV9); test: transesterification to FAMEs, TLC, immobilized crude enzyme; assay type: biochemical; conditions: methanol 15% w/w, water 10% w/w, room temperature, 24 h; triolein of 65% purity (with di- and monolein); FAMEs seen with EP100 and MP1000 preparations
T1 construct: secreted lipase, co-expressed with foldase gene lipH of 42A2 in pBBR1MCS, host P. aeruginosa PABST7.1 (PAO1 lipA lipH deletion); crude culture supernatant, adsorbed on EP100, MP1000 or Celite 545
T1 sequence (B3GVV9 24-309): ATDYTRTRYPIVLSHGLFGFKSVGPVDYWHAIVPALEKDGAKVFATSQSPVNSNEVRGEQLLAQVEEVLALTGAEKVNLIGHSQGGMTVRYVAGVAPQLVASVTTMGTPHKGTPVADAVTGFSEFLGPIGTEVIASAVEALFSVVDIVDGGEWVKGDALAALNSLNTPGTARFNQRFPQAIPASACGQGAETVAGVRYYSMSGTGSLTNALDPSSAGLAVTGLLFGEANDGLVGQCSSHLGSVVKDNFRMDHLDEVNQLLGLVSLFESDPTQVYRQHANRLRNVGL

[2] = molecular target: T2, LipA (Pseudomonas sp. 42A2, UniProt B3GVV8); test: as above; assay type: biochemical; conditions: methanol 15% w/w, water 10% w/w, 30°C, 24 h; triolein of 65% purity (with di- and monolein); FAMEs seen with EP100 and Celite 545 preparations
T2 construct: secreted lipase, co-expressed with foldase gene lipH of 42A2 in pBBR1MCS, host P. aeruginosa PABST7.1 (PAO1 lipA lipH deletion); crude culture supernatant, adsorbed on EP100, MP1000 or Celite 545
T2 sequence (B3GVV8 27-311): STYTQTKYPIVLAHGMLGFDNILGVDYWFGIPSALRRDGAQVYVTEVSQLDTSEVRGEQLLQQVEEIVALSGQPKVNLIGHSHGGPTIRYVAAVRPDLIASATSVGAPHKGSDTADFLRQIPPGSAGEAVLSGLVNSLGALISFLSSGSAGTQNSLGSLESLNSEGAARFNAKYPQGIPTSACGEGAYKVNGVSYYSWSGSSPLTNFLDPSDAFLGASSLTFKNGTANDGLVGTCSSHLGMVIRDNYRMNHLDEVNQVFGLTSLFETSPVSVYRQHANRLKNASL

## CCCCCCCC/C=C\CCCCCCCC(=O)OCC(COC(=O)CCCCCCC/C=C\CCCCCCCC)OC(=O)CCCCCCC/C=C\CCCCCCCC [triolein]
[1]
  transesterification to FAMEs, TLC, immobilized crude enzyme: LipA, LipC and LipCmut produced a visible FAMEs spot when analyzed by TLC
[2]
  transesterification to FAMEs, TLC, immobilized crude enzyme: LipA, LipC and LipCmut produced a visible FAMEs spot when analyzed by TLC
